Reference: ChEMBL document CHEMBL5038658, “Structure-Activity Relationship of 3-Methylcytidine-5'-α,β-methylenediphosphates as CD73 Inhibitors” (J Med Chem, 2022)
Calls of active or inactive are those of the source. The calls are words filed in the database; no cut-off is given here.

Experiments:
5'-nucleotidase [1] = biological target: T1, 5'-nucleotidase (Homo sapiens, UniProt P21589); assay: Inhibition of human soluble CD73 assessed as inhibition constant
5'-nucleotidase [2] = biological target: T1, 5'-nucleotidase; assay: Inhibition of human soluble CD73 at 0.03 to 50000 nM relative to control; settings: dose 0.03-50000 nM
5'-nucleotidase [3] = biological target: T1, 5'-nucleotidase; assay: Inhibition of 5'-Nucleotidase activity in human HN-SCC cells assessed as reduction in tumor CD73 catalytic activity incubated for 45 mins in presence of Pb(NO3)2 by […] based assay; assay type: cell-based; settings: dose 50-250 nM
5'-nucleotidase [4] = biological target: T1, 5'-nucleotidase; assay: Inhibition of 5'-Nucleotidase activity in human tonsils assessed as reduction in CD73 catalytic activity in tonsils incubated for 45 mins in presence of Pb(NO3)2 by […] based assay; assay type: tissue-based; settings: Tonsil, dose 50-250 nM

T1 sequence (P21589 whole entry): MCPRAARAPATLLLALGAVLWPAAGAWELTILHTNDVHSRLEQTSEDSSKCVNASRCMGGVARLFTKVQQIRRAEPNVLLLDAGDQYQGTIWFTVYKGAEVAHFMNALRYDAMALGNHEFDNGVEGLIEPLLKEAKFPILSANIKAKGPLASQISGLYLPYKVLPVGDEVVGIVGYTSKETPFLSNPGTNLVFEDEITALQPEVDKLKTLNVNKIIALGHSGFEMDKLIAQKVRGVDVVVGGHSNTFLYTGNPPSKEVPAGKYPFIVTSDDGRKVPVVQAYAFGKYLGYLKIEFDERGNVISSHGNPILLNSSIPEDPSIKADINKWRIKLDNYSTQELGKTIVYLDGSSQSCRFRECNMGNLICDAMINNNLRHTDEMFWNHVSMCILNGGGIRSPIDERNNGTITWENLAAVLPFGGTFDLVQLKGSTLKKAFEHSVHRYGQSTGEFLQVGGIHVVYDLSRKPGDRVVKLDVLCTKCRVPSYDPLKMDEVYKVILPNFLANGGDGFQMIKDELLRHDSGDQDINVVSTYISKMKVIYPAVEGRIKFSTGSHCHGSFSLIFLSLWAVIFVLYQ

| Structure (SMILES) | Ki (5'-nucleotidase [1]) | further results |
| --- | --- | --- |
| Cn1c(=O)n([C@@H]2O[C@H](COP(=O)(O)CP(=O)(O)O)[C@@H](O)[C@H]2O)cc/c1=N/OCc1ccc(Br)cc1 | 0.441 nM |  |
| Cc1ccc(CO/N=c2/ccn([C@@H]3O[C@H](COP(=O)(O)CP(=O)(O)O)[C@@H](O)[C@H]3O)c(=O)n2C)cc1 | 0.894 nM |  |
| Cn1c(=O)n([C@@H]2O[C@H](COP(=O)(O)CP(=O)(O)O)[C@@H](O)[C@H]2O)cc/c1=N/OCc1ccc(C(=O)NCCC(=O)O)cc1 | 2.61 nM |  |
| COC(=O)c1ccc(CO/N=c2/ccn([C@@H]3O[C@H](COP(=O)(O)CP(=O)(O)O)[C@@H](O)[C@H]3O)c(=O)n2C)cc1 | 0.848 nM |  |
| O=c1ccn([C@H]2[C@H](O)[C@H](O)[C@]3(COP(=O)(O)CP(=O)(O)O)C[C@H]23)c(=O)[nH]1 | > 50000 nM | inhibition (5'-nucleotidase [2]): 28% |
| Cn1c(=O)n([C@@H]2O[C@H](COP(=O)(O)CP(=O)(O)O)[C@@H](O)[C@H]2O)cc/c1=N/OCc1cccc(Cl)c1 | 1.58 nM |  |
| O=c1[nH]c(=O)n([C@@H]2O[C@H](COP(=O)(O)CP(=O)(O)O)[C@@H](O)[C@H]2O)cc1F | 2540 nM |  |
| Cn1c(=O)n([C@@H]2O[C@H](COP(=O)(O)CP(=O)(O)O)[C@@H](O)[C@H]2O)cc/c1=N/OCc1ccc(F)cc1 | 1.14 nM |  |
| Cn1c(=O)n([C@@H]2O[C@H](COP(=O)(O)CP(=O)(O)O)[C@@H](O)[C@H]2O)cc/c1=N/OCc1ccc(C(=O)NCCCCN)cc1 | 1.78 nM |  |
| Cn1c(=O)n([C@@H]2O[C@H](COP(=O)(O)CP(=O)(O)O)[C@@H](O)[C@H]2O)cc/c1=N/OCc1ccc(I)cc1 | 0.436 nM | inhibition (5'-nucleotidase [3]): Dose-Dependent Effect; inhibition (5'-nucleotidase [4]): Dose-Dependent Effect |
| Cn1c(=O)n([C@@H]2O[C@H](COP(=O)(O)CP(=O)(O)O)[C@@H](O)[C@H]2O)cc/c1=N/OCc1ccc(S(F)(F)(F)(F)F)cc1 | 0.511 nM | inhibition (5'-nucleotidase [3]): Dose-Dependent Effect; inhibition (5'-nucleotidase [4]): Dose-Dependent Effect |
| Cn1c(=O)n([C@@H]2O[C@H](COP(=O)(O)CP(=O)(O)O)[C@@H](O)[C@H]2O)cc/c1=N/OCc1ccc(C(N)=O)cc1 | 1.76 nM |  |
| Cn1c(=O)n([C@@H]2O[C@H](COP(=O)(O)CP(=O)(O)O)[C@@H](O)[C@H]2O)cc/c1=N/OCc1ccccc1Cl | 1.63 nM |  |
| Cn1c(=O)n([C@@H]2O[C@H](COP(=O)(O)CP(=O)(O)O)[C@@H](O)[C@H]2O)cc/c1=N/OCc1ccc(C(=O)NCCN)cc1 | 0.626 nM |  |
| Cn1c(=O)n([C@H]2[C@H](O)[C@H](O)[C@]3(COP(=O)(O)CP(=O)(O)O)C[C@H]23)cc/c1=N/OCc1ccc(Cl)cc1 | 59.2 nM |  |
| Nc1ncnc2c1ncn2[C@@H]1O[C@H](COP(=O)(O)CP(=O)(O)O)[C@@H](O)[C@H]1O |  | inhibition (5'-nucleotidase [3]): inactive; inhibition (5'-nucleotidase [4]): inactive |
| Cn1c(=O)n([C@@H]2O[C@H](COP(=O)(O)CP(=O)(O)O)[C@@H](O)[C@H]2O)cc/c1=N/OCc1cccc(C(F)(F)F)c1 | 1.27 nM |  |
| Cn1c(=O)n([C@@H]2O[C@H](COP(=O)(O)CP(=O)(O)O)[C@@H](O)[C@H]2O)cc/c1=N/C(=O)NCc1ccccc1 | 71.5 nM |  |
| CCc1ccc(CO/N=c2/ccn([C@@H]3O[C@H](COP(=O)(O)CP(=O)(O)O)[C@@H](O)[C@H]3O)c(=O)n2C)cc1 | 3.5 nM |  |
| CCOC(=O)CCNC(=O)c1ccc(CO/N=c2/ccn([C@@H]3O[C@H](COP(=O)(O)CP(=O)(O)O)[C@@H](O)[C@H]3O)c(=O)n2C)cc1 | 2.51 nM |  |
| Cn1c(=O)n([C@@H]2O[C@H](COP(=O)(O)CP(=O)(O)O)[C@@H](O)[C@H]2O)cc/c1=N/OCc1ccc(C(F)(F)F)cc1 | 1.08 nM |  |
| Cn1c(=O)n([C@@H]2O[C@H](COP(=O)(O)CP(=O)(O)O)[C@@H](O)[C@H]2O)cc/c1=N/OCc1ccc(C(=O)O)cc1 | 14.1 nM |  |
